Measurements reported in ChEMBL document CHEMBL1681689, “Discovery of N-methyl-1-(1-phenylcyclohexyl)ethanamine, a novel triple serotonin, norepinephrine and dopamine reuptake inhibitor” (Bioorg Med Chem Lett, 2011).
Calls of active or inactive are those of the source. The rule behind the calls is not given here.

Assays:
[1] = Half life in mouse liver microsomes by in vitro metabolic stability assay; type: ADME, Microsome; conditions: for half-life: liver microsomes; for t1/2: microsomes
[2] = (§1) Half life in human liver microsomes by in vitro metabolic stability assay; type: ADME, Microsome; conditions: liver microsomes
[3] = biological target: Sodium-dependent serotonin transporter (Homo sapiens, UniProt P31645); type: cell-based, LLC-PK1
[4] = biological target: Sodium-dependent dopamine transporter (Homo sapiens, UniProt Q01959); type: cell-based, COS-7
[5] = biological target: Sodium-dependent noradrenaline transporter (Homo sapiens, UniProt P23975)
[6] = biological target: T1, Voltage-gated inwardly rectifying potassium channel KCNH2 (Homo sapiens, UniProt Q12809)
[7] = Inhibition of CYP1A; type: ADME
Cytochrome P450 2D6 = Cytochrome P450 2D6 (Homo sapiens, UniProt P10635); assay: Inhibition of CYP2D6; type: ADME
Cytochrome P450 3A4 = Cytochrome P450 3A4 (Homo sapiens, UniProt P08684); assay: Inhibition of CYP3A4; type: ADME
Mus musculus [8] = assay: Antidepressant activity in mouse assessed as reduction in immobility duration pretreated 30 mins before at 30 mg/kg, po by tail suspension test; type: functional; set-up: scale not given: the % may be the effect or the level left
Cytochrome P450 2C19 = Cytochrome P450 2C19 (Homo sapiens, UniProt P33261); assay: Inhibition of CYP2C19; type: ADME
Mus musculus [9] = assay: Antidepressant activity in mouse assessed as reduction in immobility duration pretreated 30 mins before at 100 mg/kg, po by tail suspension test; type: functional; set-up: scale not given: the % may be the effect or the level left
Cytochrome P450 2C9 = Cytochrome P450 2C9 (Homo sapiens, UniProt P11712); assay: Inhibition of CYP2C9; type: ADME
Brain [10] = assay: Drug level in mouse brain at 30 mg/kg, po; type: functional, organism-based; set-up: dose 30 mg/kg
Plasma [11] = assay: Drug level in mouse plasma at 10 mg/kg, po; type: functional, organism-based; set-up: dose 10 mg/kg
Brain [12] = assay: Drug level in mouse brain at 10 mg/kg, po; type: functional, organism-based; set-up: dose 10 mg/kg
Mus musculus [13] = assay: Antidepressant activity in po dosed mouse assessed as reduction of immobility duration measured by tail suspension test; type: functional, organism-based
Brain [14] = assay: Drug level in mouse brain at 3 mg/kg, po; type: functional, organism-based; set-up: dose 3 mg/kg
Plasma [15] = assay: Drug level in mouse plasma at 30 mg/kg, po; type: functional, organism-based; set-up: dose 30 mg/kg
Plasma [16] = assay: Drug level in mouse plasma at 3 mg/kg, po; type: functional, organism-based; set-up: dose 3 mg/kg
Mus musculus [17] = assay: Antidepressant activity in mouse assessed as reduction of immobility duration measured at first 5 mins time point at 10 or 30 mg/kg, po by tail suspension test; type: functional, organism-based; set-up: dose 30 mg/kg
Liver microsomes = assay: as §1; type: ADME, Microsome; conditions: microsomes
[18] = biological target: T1, Voltage-gated inwardly rectifying potassium channel KCNH2; remark: listed apart in the source
Mus musculus [19] = assay: Antidepressant activity in mouse assessed as reduction in immobility duration pretreated 30 mins before at 10 mg/kg, po by tail suspension test; type: functional; set-up: scale not given: the % may be the effect or the level left

T1 sequence (Q12809 whole entry): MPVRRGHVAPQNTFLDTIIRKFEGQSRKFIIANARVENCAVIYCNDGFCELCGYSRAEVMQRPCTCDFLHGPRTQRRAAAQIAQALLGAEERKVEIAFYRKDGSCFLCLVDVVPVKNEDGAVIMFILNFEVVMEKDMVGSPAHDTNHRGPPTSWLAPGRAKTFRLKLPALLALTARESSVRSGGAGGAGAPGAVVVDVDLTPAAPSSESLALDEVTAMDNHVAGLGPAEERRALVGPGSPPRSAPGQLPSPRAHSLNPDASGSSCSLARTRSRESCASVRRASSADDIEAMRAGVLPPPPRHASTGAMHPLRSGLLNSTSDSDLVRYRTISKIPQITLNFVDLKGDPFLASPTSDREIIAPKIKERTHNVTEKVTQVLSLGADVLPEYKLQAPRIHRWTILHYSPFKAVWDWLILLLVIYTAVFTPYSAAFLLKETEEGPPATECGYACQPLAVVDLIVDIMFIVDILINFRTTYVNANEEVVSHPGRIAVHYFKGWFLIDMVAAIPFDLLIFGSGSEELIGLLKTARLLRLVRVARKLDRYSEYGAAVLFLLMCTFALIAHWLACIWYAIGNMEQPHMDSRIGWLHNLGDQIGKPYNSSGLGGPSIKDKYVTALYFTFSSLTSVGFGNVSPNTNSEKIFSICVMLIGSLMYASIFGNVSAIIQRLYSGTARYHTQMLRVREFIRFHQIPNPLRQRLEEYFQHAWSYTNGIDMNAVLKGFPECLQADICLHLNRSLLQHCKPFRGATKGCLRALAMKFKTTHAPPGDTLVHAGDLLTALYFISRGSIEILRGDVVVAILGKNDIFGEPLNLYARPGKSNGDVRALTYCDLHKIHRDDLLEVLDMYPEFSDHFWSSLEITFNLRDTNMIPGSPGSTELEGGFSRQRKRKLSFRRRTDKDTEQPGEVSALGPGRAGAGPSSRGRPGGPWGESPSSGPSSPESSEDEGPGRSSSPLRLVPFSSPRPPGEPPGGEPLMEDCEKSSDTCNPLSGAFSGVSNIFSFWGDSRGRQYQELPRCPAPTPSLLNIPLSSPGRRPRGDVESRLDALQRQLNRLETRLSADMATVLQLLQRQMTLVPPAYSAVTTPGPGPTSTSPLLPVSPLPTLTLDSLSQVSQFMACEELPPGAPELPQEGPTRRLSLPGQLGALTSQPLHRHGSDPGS
Sequence of Cytochrome P450 2D6 (P10635 whole entry): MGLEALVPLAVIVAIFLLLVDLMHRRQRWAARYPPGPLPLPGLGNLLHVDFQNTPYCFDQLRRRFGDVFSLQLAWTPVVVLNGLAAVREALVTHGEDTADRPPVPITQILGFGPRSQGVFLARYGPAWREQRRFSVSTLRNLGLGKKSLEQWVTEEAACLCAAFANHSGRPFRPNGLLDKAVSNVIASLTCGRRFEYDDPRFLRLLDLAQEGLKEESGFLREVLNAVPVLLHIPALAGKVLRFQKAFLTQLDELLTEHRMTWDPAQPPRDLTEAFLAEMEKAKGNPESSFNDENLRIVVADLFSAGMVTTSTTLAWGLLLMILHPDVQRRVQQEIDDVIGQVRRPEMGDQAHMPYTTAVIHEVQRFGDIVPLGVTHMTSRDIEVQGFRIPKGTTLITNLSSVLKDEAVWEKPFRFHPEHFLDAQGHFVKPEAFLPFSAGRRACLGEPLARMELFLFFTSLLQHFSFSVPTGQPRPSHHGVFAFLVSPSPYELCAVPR
Sequence of Cytochrome P450 2C9 (P11712 whole entry): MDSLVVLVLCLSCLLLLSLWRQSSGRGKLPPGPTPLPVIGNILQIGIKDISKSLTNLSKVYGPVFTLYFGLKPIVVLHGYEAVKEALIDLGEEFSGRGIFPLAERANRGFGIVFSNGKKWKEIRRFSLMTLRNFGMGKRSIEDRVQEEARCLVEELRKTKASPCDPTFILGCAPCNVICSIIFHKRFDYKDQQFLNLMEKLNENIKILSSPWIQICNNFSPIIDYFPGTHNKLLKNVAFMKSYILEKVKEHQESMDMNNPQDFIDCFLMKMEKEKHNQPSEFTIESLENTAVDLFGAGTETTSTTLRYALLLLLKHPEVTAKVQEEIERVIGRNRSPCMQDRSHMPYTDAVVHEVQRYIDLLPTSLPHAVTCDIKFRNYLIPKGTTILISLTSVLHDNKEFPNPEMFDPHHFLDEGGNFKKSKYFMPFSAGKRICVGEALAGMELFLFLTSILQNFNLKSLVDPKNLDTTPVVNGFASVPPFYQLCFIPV
Sequence of Cytochrome P450 2C19 (P33261 whole entry): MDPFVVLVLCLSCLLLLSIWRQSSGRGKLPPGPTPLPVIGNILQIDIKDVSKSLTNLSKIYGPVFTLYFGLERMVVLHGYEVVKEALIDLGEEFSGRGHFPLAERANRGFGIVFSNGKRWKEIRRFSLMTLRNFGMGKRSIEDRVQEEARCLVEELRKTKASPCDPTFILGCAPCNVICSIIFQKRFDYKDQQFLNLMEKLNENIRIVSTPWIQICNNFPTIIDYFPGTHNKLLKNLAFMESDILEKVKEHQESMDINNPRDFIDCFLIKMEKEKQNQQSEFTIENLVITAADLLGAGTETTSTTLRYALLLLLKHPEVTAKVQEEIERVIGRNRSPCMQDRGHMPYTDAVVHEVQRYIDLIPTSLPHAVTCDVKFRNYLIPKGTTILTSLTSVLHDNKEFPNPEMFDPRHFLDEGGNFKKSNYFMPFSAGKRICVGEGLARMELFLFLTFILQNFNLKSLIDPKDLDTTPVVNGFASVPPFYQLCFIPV
Sequence of Sodium-dependent serotonin transporter (P31645 whole entry): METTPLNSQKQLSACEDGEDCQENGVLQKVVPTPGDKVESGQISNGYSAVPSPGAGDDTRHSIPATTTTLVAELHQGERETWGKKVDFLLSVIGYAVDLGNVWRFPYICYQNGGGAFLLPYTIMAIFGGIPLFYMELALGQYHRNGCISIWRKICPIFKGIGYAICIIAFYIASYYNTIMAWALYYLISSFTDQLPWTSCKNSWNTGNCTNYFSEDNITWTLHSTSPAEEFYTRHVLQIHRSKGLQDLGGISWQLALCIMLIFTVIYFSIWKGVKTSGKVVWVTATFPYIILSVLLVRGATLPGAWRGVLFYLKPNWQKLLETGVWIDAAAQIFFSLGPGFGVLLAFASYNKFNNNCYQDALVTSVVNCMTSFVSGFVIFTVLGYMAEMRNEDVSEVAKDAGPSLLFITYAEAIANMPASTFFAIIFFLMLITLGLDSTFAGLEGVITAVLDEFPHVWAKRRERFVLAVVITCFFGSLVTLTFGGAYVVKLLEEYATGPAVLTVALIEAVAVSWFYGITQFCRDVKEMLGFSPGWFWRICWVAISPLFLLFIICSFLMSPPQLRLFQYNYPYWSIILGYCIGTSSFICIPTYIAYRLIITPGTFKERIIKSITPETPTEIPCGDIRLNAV
Sequence of Cytochrome P450 3A4 (P08684 whole entry): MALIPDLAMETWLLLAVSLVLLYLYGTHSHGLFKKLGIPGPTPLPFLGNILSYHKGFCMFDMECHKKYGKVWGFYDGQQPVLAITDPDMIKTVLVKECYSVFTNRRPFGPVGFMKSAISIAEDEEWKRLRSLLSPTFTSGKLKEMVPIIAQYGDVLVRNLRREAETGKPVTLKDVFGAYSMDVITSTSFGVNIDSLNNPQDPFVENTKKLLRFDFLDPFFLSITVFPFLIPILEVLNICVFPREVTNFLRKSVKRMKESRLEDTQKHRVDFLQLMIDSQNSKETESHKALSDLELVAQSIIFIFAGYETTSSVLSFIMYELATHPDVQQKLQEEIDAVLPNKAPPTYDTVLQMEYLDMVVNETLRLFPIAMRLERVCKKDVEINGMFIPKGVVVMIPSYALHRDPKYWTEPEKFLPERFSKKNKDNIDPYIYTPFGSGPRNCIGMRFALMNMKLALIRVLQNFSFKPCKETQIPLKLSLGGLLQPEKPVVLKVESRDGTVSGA
Sequence of Sodium-dependent noradrenaline transporter (P23975 whole entry): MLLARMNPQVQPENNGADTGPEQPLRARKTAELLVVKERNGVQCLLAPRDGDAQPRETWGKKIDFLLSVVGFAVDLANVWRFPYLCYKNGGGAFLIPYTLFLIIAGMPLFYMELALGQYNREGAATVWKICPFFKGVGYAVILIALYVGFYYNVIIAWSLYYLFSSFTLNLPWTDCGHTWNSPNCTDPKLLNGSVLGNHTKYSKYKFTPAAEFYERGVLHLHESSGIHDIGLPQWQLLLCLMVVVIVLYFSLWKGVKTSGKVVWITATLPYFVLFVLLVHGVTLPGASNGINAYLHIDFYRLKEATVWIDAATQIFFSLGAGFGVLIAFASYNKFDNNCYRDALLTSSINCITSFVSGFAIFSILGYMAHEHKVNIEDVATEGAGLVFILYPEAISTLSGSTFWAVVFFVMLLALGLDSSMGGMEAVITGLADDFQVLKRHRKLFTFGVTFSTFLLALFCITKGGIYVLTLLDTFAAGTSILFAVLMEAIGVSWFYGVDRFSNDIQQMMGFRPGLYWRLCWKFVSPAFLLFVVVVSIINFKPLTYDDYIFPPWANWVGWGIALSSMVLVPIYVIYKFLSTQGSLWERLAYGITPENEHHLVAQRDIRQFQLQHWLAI
Sequence of Sodium-dependent dopamine transporter (Q01959 whole entry): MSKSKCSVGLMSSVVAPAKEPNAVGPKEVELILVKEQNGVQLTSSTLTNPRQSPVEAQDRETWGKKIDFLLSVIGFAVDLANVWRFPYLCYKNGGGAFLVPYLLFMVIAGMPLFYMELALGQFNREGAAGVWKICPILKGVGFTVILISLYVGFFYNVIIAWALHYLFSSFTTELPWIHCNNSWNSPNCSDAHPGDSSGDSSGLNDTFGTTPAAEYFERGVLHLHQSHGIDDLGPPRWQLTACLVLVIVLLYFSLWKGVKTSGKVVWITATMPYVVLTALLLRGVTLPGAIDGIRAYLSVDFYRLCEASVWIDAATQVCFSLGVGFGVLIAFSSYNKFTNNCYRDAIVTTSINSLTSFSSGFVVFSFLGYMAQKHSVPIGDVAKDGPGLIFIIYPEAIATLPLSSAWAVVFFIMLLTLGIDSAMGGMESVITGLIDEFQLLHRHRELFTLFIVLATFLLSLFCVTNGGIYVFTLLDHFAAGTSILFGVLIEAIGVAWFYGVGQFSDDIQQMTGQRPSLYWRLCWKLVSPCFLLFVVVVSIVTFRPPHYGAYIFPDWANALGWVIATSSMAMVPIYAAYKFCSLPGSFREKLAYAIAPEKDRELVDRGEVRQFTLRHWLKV

CC(N)C1(c2cccc3ccccc23)CCCCC1 (configuration not stated)
half-life [1]: 80 min
half-life [2]: > 300 min

CC(N)C1(c2ccc(OC(F)(F)F)cc2)CCCCC1 (configuration not stated)
IC50 [3]: 0.11 µM
half-life [1]: 100 min
half-life [2]: > 300 min

CC(N)C1(c2ccc(OC(C)(C)C)cc2)CCCCC1 (configuration not stated)
IC50 [4]: 1.52 µM
IC50 [5]: 5 µM
IC50 [3]: 7.1 µM

CC(N)C1(c2cccs2)CCCCC1 (configuration not stated)
half-life [1]: 137 min
half-life [2]: 152 min

CC(N)C1(c2ccc(-c3ccccc3)cc2)CCCCC1 (configuration not stated)
half-life [1]: 40 min
half-life [2]: 248 min

CC(N(C)C)C1(c2ccc(Cl)c(Cl)c2)CCCCC1.Cl (configuration not stated)
IC50 [6]: 40 µM
IC50 [7]: > 25 µM
IC50 (Cytochrome P450 2D6): > 25 µM
IC50 (Cytochrome P450 3A4): > 25 µM
Activity (Mus musculus [8]): 39%
IC50 (Cytochrome P450 2C19): > 25 µM
Activity (Mus musculus [9]): 27%
IC50 (Cytochrome P450 2C9): > 25 µM

CC(N(C)C)C1(c2ccc(Cl)c(Cl)c2)CCCCC1 (configuration not stated)
Drug uptake (Brain [10]): 845 ng/g
Cp (Plasma [11]): 12 ng/mL
Drug uptake (Brain [12]): 114 ng/g
Activity (Mus musculus [13]): Dose-dependent effect
Drug uptake (Brain [14]): 19 ng/g
Cp (Plasma [15]): 103 ng/mL
Cp (Plasma [16]): 2 ng/mL
Activity (Mus musculus [17]): inactive

CC(N)C1(c2ccc(Cl)c(Cl)c2)CCCCC1 (racemic)
t1/2 [1]: 163 min
half-life [2]: > 300 min

CCC(N)C1(c2ccc(Cl)c(Cl)c2)CCCCC1 (racemic)
half-life [1]: 56 min
half-life [2]: 96 min

CC(C)CC(N)C1(c2ccc(Cl)c(Cl)c2)CCCCC1 (racemic)
half-life [1]: 59 min
half-life [2]: 83 min

CNC(C)C1(c2ccc(Cl)c(Cl)c2)CCCCC1 (racemic)
t1/2 [1]: 154 min
t1/2 (Liver microsomes): 281 min

CNC(CC(C)C)C1(c2ccc(Cl)c(Cl)c2)CCCCC1 (racemic)
half-life [1]: 18 min
half-life [2]: 23 min

CC(N(C)C)C1(c2ccc(Cl)c(Cl)c2)CCCCC1 (racemic)
half-life [1]: 22 min
half-life [2]: 23 min

CC(C)CC(N(C)C)C1(c2ccc(Cl)c(Cl)c2)CCCCC1 (racemic)
half-life [1]: > 300 min
half-life [2]: 18 min

CC(N)C1(c2ccc3ccccc3c2)CCCCC1 (racemic)
half-life [1]: 16 min
half-life [2]: 140 min

CC(N(C)C)C1(c2ccc3ccccc3c2)CCCCC1 (racemic)
half-life [1]: 22 min
half-life [2]: 33 min

CNC(C)C1(c2ccc(Cl)c(Cl)c2)CCCCC1 (single isomer, unassigned)
t1/2 [1]: 54 min
t1/2 (Liver microsomes): 71 min

CC(N(C)C)C1(c2ccc(Cl)c(Cl)c2)CCCCC1 (single isomer, unassigned)
t1/2 [1]: 28 min

CC(N)C1(c2ccc3ccccc3c2)CCCCC1 (single isomer, unassigned)
t1/2 [1]: 11 min
t1/2 (Liver microsomes): 150 min

CC(N)C1(c2ccc(Cl)c(Cl)c2)CCCCC1 (single isomer, unassigned; enantiomer 1)
t1/2 [1]: 84 min

CC(N(C)C)C1(c2ccc(Cl)c(Cl)c2)CCCCC1 (single isomer, unassigned; enantiomer 1)
t1/2 [1]: 25 min
IC50 [18]: 40 µM
t1/2 (Liver microsomes): 28 min

CC(N)C1(c2ccc3ccccc3c2)CCCCC1 (single isomer, unassigned; enantiomer 2)
t1/2 [1]: 14 min
t1/2 (Liver microsomes): 164 min

CC(N(C)C)C1(c2ccc3ccccc3c2)CCCCC1 (single isomer, unassigned; enantiomer 2)
t1/2 [1]: 23 min

CNC(C)C1(c2ccc3ccccc3c2)CCCCC1 (single isomer, unassigned; enantiomer 2)
t1/2 [1]: 11 min
t1/2 (Liver microsomes): 101 min

CNC(C)C1(c2ccc(Cl)c(Cl)c2)CCCCC1.Cl (single isomer, unassigned; enantiomer 2)
IC50 [7]: > 25 µM
IC50 (Cytochrome P450 2D6): 8.5 µM
Activity (Mus musculus [19]): 13%
Activity (Mus musculus [8]): 3.3%
Activity (Mus musculus [9]): 25%

CNC(C)C1(c2ccc(Cl)c(Cl)c2)CCCCC1 (single isomer, unassigned; enantiomer 2)
Drug uptake (Brain [10]): 7070 ng/g
Cp (Plasma [11]): 44 ng/mL
Drug uptake (Brain [12]): 782 ng/g
Activity (Mus musculus [13]): Dose-dependent effect
Drug uptake (Brain [14]): 145 ng/g
Cp (Plasma [15]): 544 ng/mL
Cp (Plasma [16]): 9 ng/mL
Activity (Mus musculus [17]): inactive

CC(N(C)C)C1(c2ccc3ccccc3c2)CCCCC1 (single isomer, unassigned; form 1)
t1/2 [1]: 19 min
IC50 [18]: 4.3 µM
t1/2 (Liver microsomes): 32 min

CC(N(C)C)C1(c2ccc3ccccc3c2)CCCCC1.Cl (single isomer, unassigned; form 2)
IC50 [6]: 4.3 µM
IC50 [7]: > 25 µM
IC50 (Cytochrome P450 2D6): > 5 µM
Activity (Mus musculus [19]): 14%
IC50 (Cytochrome P450 3A4): > 5 µM
Activity (Mus musculus [8]): 30%
IC50 (Cytochrome P450 2C19): > 5 µM
Activity (Mus musculus [9]): 37%
IC50 (Cytochrome P450 2C9): > 5 µM

CC(N(C)C)C1(c2ccc3ccccc3c2)CCCCC1 (single isomer, unassigned; form 2)
Drug uptake (Brain [10]): 564 ng/g
Cp (Plasma [11]): 13 ng/mL
Drug uptake (Brain [12]): 130 ng/g
Activity (Mus musculus [13]): Dose-dependent effect
Drug uptake (Brain [14]): 25 ng/g
Cp (Plasma [15]): 68 ng/mL
Cp (Plasma [16]): 2 ng/mL
Activity (Mus musculus [17]): inactive

CNC(C)C1(c2ccc(Cl)c(Cl)c2)CCCCC1 (stereo in doubt; 24)
t1/2 [1]: 52 min
t1/2 (Liver microsomes): 53 min

CNC(C)C1(c2ccc3ccccc3c2)CCCCC1 (stereo in doubt; 29)
half-life [1]: 12 min
half-life [2]: 90 min
